Experimental data as given in the supplement of paper PMC10331698.
± gives the standard deviation of the averaged measurements.

Legend:
[1] = compound: T1, C=CC(=O)OCC(F)(F)C(F)(F)C(F)(F)COC(=O)C=C [1H,1H,5H,5H-Perfluoro-1,5-pentanediol diacrylate]; assay: LOEC (log10 uM (lowest observed effect concentration))
Description: (§1)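 BioMAP Diversity Plus panel in human primary cell co-cultures, 4 concentrations in duplicate blinded samples. Responses are log10 fold change versus DMSO control, processed with tcpl v2.1.0. A hit is called when responses at any concentration exceed the cutoff (the larger of 3*bmad or log10(1.2)); the lowest observed effect concentration (modl_ga, log10 uM) is reported for hits.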

[2] = compound: T2, O=C(O)C(F)(F)C(F)(F)C(F)(F)C(F)(F)C(F)(F)C(F)(F)C(F)(F)C(F)(F)C(F)(F)C(F)F [11-H-Perfluoroundecanoic acid]; assay: as above
Description: as §1

[3] = compound: C=C(C)C(=O)OCCC(F)(F)C(F)(F)C(F)(F)C(F)(F)C(F)(F)C(F)(F)F [6:2 Fluorotelomer methacrylate]; assay: level (log10 ratio to DMSO vehicle control); higher = higher biomarker level / cell amount than vehicle control; conditions: in DMSO
Description: (§2)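 BioMAP Diversity Plus panel of 12 human primary cell co-culture systems (3C, 4H, LPS, SAg, BT, BF4T, BE3C, CASM3C, HDF3CGF, KF3CT, MyoF, Mphg). Compounds were added 1 h before stimulation and left for 24 h (MyoF 48 h; BT 72 h for soluble read-outs or 6 d for IgG). Biomarkers were read by ELISA, cytotoxicity by SRB, PBMC viability and proliferation by Alamar Blue. Each well value was divided by the mean of 8 DMSO control wells on the same plate and log10 transformed; duplicate blinded samples were tested at 4 concentrations.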

[4] = compound: T1, 1H,1H,5H,5H-Perfluoro-1,5-pentanediol diacrylate; assay: as above; conditions: 6700 nM; in DMSO
Description: as §2

[5] = compound: COC(=O)C(F)(F)C(F)(F)OC(F)(C(F)(F)F)C(F)(F)OC(F)=C(F)F [Methyl perfluoro(3-(1-ethenyloxypropan-2-yloxy)propanoate)]; assay: as above; conditions: in DMSO
Description: as §2

[6] = compound: FC(F)(F)C(F)(F)C(F)(F)C(F)(F)C(F)(F)C(F)(F)C(F)(F)I [1-Iodopentadecafluoroheptane]; assay: as above; conditions: in DMSO
Description: as §2

[7] = compound: FC(F)(F)C(F)(F)C(F)(F)C(F)(F)C(F)(F)C(F)(F)CC1CO1 [3-(Perfluorohexyl)-1,2-epoxypropane]; assay: as above; conditions: in DMSO
Description: as §2

[8] = compound: FC(F)(F)C(F)(F)C(F)(F)CC1CO1 [1H,1H-Heptafluorobutyl epoxide]; assay: as above; conditions: in DMSO
Description: as §2

Heptafluorobutyl iodide = compound: FC(F)(F)C(F)(F)C(F)(F)CI [Heptafluorobutyl iodide]; assay: as above; conditions: in DMSO
Description: as §2

[9] = compound: FC(F)(F)C(F)(F)CNCC(F)(F)C(F)(F)F [Bis(1H,1H-perfluoropropyl)amine]; assay: as above; conditions: in DMSO
Description: as §2

Octafluoroadipamide = compound: NC(=O)C(F)(F)C(F)(F)C(F)(F)C(F)(F)C(N)=O [Octafluoroadipamide]; assay: as above; conditions: in DMSO
Description: as §2

Nonafluoropentanamide = compound: NC(=O)C(F)(F)C(F)(F)C(F)(F)C(F)(F)F [Nonafluoropentanamide]; assay: as above; conditions: in DMSO
Description: as §2

[10] = compound: NC(=O)C(F)(F)C(F)(F)C(F)(F)C(F)F; assay: as above; conditions: in DMSO
Description: as §2

[11] = compound: NS(=O)(=O)C(F)(F)C(F)(F)C(F)(F)C(F)(F)C(F)(F)C(F)(F)F [Perfluorohexanesulfonamide]; assay: as above; conditions: in DMSO
Description: as §2

[12] = compound: T2, 11-H-Perfluoroundecanoic acid; assay: as above; conditions: in DMSO
Description: as §2

[13] = compound: O=C(O)C=CC(F)(C(F)(F)F)C(F)(F)F [3-(Perfluoroisopropyl)-2-propenoic acid]; assay: as above; conditions: in DMSO
Description: as §2

[14] = compound: O=S(=O)(Cl)C(F)(F)C(F)(F)C(F)(F)C(F)(F)C(F)(F)C(F)(F)C(F)(F)C(F)(F)F [Perfluoro-1-octanesulfonyl chloride]; assay: as above; conditions: in DMSO
Description: as §2

[15] = compound: O=S(=O)(F)C(F)(F)C(F)(F)C(F)(F)C(F)(F)C(F)(F)C(F)(F)C(F)(F)C(F)(F)F [Perfluorooctanesulfonyl fluoride]; assay: as above; conditions: in DMSO
Description: as §2

[16] = compound: O=S(=O)(O)C(F)(F)C(F)(F)C(F)(F)C(F)(F)C(F)(F)C(F)(F)C(F)(F)C(F)(F)C(F)(F)C(F)(F)F [Sodium perfluorodecanesulfonate]; assay: as above; conditions: in DMSO
Description: as §2

[17] = compound: O=S(=O)(O)CCC(F)(F)C(F)(F)C(F)(F)C(F)(F)C(F)(F)C(F)(F)F [6:2 Fluorotelomer sulfonic acid]; assay: as above; conditions: in DMSO
Description: as §2

Hexafluoroamylene glycol = compound: OCC(F)(F)C(F)(F)C(F)(F)CO [Hexafluoroamylene glycol]; assay: as above; conditions: in DMSO
Description: as §2

3C Eselectin down
LOEC (log10 uM) [1]: 0.573 ± 0.39

3C ICAM1 down
LOEC (log10 uM) [1]: 1.3

3C IL8 down
LOEC (log10 uM) [1]: 1.3

3C MIG down
LOEC (log10 uM) [1]: 1.3

3C TissueFactor down
LOEC (log10 uM) [1]: 0.845

3C VCAM1 down
LOEC (log10 uM) [1]: 0.845

4H MCP1 down
LOEC (log10 uM) [1]: 1.3

4H Pselectin down
LOEC (log10 uM) [1]: 1.3

4H uPAR down
LOEC (log10 uM) [1]: 1.04 ± 1

BE3C Keratin818 down
LOEC (log10 uM) [2]: 1.54 ± 0.34

BF4T CD90 down
LOEC (log10 uM) [2]: 1.54 ± 0.34

BT Bcell Proliferation down
LOEC (log10 uM) [1]: 0.845

BT PBMCCytotoxicity down
LOEC (log10 uM) [1]: 0.573 ± 0.39

BT sIgG down
LOEC (log10 uM) [1]: 0.845

BT xIL2 down
LOEC (log10 uM) [1]: 0.845

BT xIL6 down
LOEC (log10 uM) [1]: 0.573 ± 0.39

BT xIL17A down
LOEC (log10 uM) [1]: 0.845

BT xIL17F down
LOEC (log10 uM) [1]: 0.301

BT xTNFa down
LOEC (log10 uM) [1]: 0.301

CASM3C HLADR down
LOEC (log10 uM) [1]: 1.3

CASM3C IL6 down
LOEC (log10 uM) [1]: 1.3

CASM3C IL8 down
LOEC (log10 uM) [1]: 1.3

CASM3C LDLR down
LOEC (log10 uM) [1]: 1.78

CASM3C MCP1 down
LOEC (log10 uM) [1]: 1.78

CASM3C MCSF down
LOEC (log10 uM) [1]: 1.3

CASM3C MIG down
LOEC (log10 uM) [1]: 0.845

CASM3C PAI1 down
LOEC (log10 uM) [1]: 1.78

CASM3C Proliferation down
LOEC (log10 uM) [1]: 0.573 ± 0.39

CASM3C SAA down
LOEC (log10 uM) [1]: 1.78

CASM3C SRB down
LOEC (log10 uM) [1]: 1.54 ± 0.34

CASM3C Thrombomodulin up
LOEC (log10 uM) [1]: 1.3

CASM3C VCAM1 down
LOEC (log10 uM) [1]: 0.845

CASM3C uPAR down
LOEC (log10 uM) [1]: 1.78

IMphg IL8 down
LOEC (log10 uM) [1]: 1.78

IMphg MIP1a down
LOEC (log10 uM) [1]: 1.78

KF3CT ICAM1 down
LOEC (log10 uM) [1]: 1.07 ± 0.32

KF3CT IL8 down
LOEC (log10 uM) [1]: 1.3

KF3CT TIMP2 down
LOEC (log10 uM) [1]: 1.78

LPS IL1a down
LOEC (log10 uM) [1]: 1.3

LPS IL8 down
LOEC (log10 uM) [1]: 1.3

LPS MCSF down
LOEC (log10 uM) [1]: 1.3

LPS TNFa down
LOEC (log10 uM) [1]: 1.3

LPS TissueFactor down
LOEC (log10 uM) [1]: 1.07 ± 0.32

MyoF Decorin down
LOEC (log10 uM) [1]: 1.3

MyoF IL8 down
LOEC (log10 uM) [1]: 1.3

MyoF TIMP1 down
LOEC (log10 uM) [1]: 1.3

MyoF bFGF down
LOEC (log10 uM) [1]: 1.3

MyoF:bFGF
level (log10) ([3]; 6700 nM): -0.0025 ± 0.0064
level (log10) ([3]; 20000 nM): -0.0115 ± 0.018
level (log10) ([3]; 60000 nM): -0.0085 ± 0.011
level (log10) [4]: 0.0025 ± 0.005
level (log10) ([5]; 6700 nM): 0.016 ± 0.0099
level (log10) ([5]; 20000 nM): 0.037 ± 0.021
level (log10) ([6]; 6700 nM): 0.0165 ± 0.016
level (log10) ([6]; 20000 nM): -0.0075 ± 0.015
level (log10) ([7]; 6700 nM): 0.02 ± 0.02
level (log10) ([7]; 20000 nM): 0.02 ± 0.018
level (log10) ([7]; 60000 nM): 0.014 ± 0.0057
level (log10) ([8]; 6700 nM): -0.0035 ± 0.0035
level (log10) ([8]; 20000 nM): -0.002 ± 0.0028
level (log10) ([8]; 60000 nM): -0.0025 ± 0.015
level (log10) (Heptafluorobutyl iodide; 6700 nM): 0.0115 ± 0.019
level (log10) (Heptafluorobutyl iodide; 20000 nM): 0.01 ± 0.0028
level (log10) (Heptafluorobutyl iodide; 60000 nM): 0.0115 ± 0.005
level (log10) ([9]; 6700 nM): -0.0065 ± 0.013
level (log10) ([9]; 20000 nM): -0.0045 ± 0.005
level (log10) ([9]; 60000 nM): 0.013 ± 0.025
level (log10) (Octafluoroadipamide; 6700 nM): -0.0115 ± 0.015
level (log10) (Octafluoroadipamide; 20000 nM): -0.014 ± 0.011
level (log10) (Octafluoroadipamide; 60000 nM): 0.0135 ± 0.0078
level (log10) (Nonafluoropentanamide; 6700 nM): 0.0185 ± 0.023
level (log10) (Nonafluoropentanamide; 20000 nM): -0.003 ± 0.0099
level (log10) (Nonafluoropentanamide; 60000 nM): -0.007 ± 0.0057
level (log10) ([10]; 6700 nM): -0.0125 ± 0.005
level (log10) ([10]; 20000 nM): -0.008 ± 0.017
level (log10) ([10]; 60000 nM): -0.0155 ± 0.005
level (log10) ([11]; 6700 nM): -0.0005 ± 0.00071
level (log10) ([11]; 20000 nM): -0.001 ± 0.0042
level (log10) ([11]; 60000 nM): -0.004 ± 0.023
level (log10) ([12]; 6700 nM): 0.006 ± 0.0099
level (log10) ([12]; 20000 nM): 0.005
level (log10) ([13]; 6700 nM): 0 ± 0.0028
level (log10) ([13]; 20000 nM): 0.006 ± 0.027
level (log10) ([13]; 60000 nM): 0.006 ± 0.017
level (log10) ([14]; 6700 nM): -0.007 ± 0.014
level (log10) ([14]; 20000 nM): -0.039 ± 0.0014
level (log10) ([14]; 60000 nM): -0.029 ± 0.034
level (log10) ([15]; 6700 nM): 0 ± 0.0014
level (log10) ([15]; 20000 nM): -0.0085 ± 0.00071
level (log10) ([15]; 60000 nM): 0.0095 ± 0.018
level (log10) ([16]; 1500 nM): 0.0025 ± 0.005
level (log10) ([16]; 4400 nM): 0.033
level (log10) ([16]; 13000 nM): 0.015 ± 0.0057
level (log10) ([16]; 40000 nM): 0.023 ± 0.011
level (log10) ([17]; 6700 nM): -0.0065 ± 0.0078
level (log10) ([17]; 20000 nM): 0.019 ± 0.013
level (log10) ([17]; 60000 nM): 0.0235 ± 0.044
level (log10) (Hexafluoroamylene glycol; 6700 nM): -0.007 ± 0.017
level (log10) (Hexafluoroamylene glycol; 20000 nM): 0.006 ± 0.0085
level (log10) (Hexafluoroamylene glycol; 60000 nM): 0.0125 ± 0.019
